Calls of active or inactive are those of the source. The calls are words filed in the database; no cut-off is given here.
Key:
[1] = biological target: Ribosomal protein S6 kinase alpha-1 (Rattus norvegicus) (UniProt Q63531); experiment: Inhibition of recombinant rat RSK1 at 10 uM relative to control
A549 [2] = experiment: Induction of mitotic arrest in human A549 cells assessed as micronucleation at 20 nmol/L incubated for 16 hrs by DAPI staining based confocal microscopic analysis; assay type: functional, cell-based
LoVo = experiment: Antiproliferative activity against human LoVo cells assessed as growth inhibition incubated for 72 hrs by celltiter-glo assay; assay type: functional
HT-1080 [3] = experiment: Antiproliferative activity against human HT-1080 cells assessed as growth inhibition incubated for 72 hrs by celltiter-glo assay; assay type: functional
SK-MEL-2 = experiment: Antiproliferative activity against human SK-MEL-2 cells assessed as growth inhibition incubated for 72 hrs by celltiter-glo assay; assay type: functional
A704 = experiment: Antiproliferative activity against human A704 cells assessed as growth inhibition incubated for 72 hrs by celltiter-glo assay; assay type: functional
LNCaP = experiment: Antiproliferative activity against human LNCaP cells assessed as growth inhibition incubated for 72 hrs by celltiter-glo assay; assay type: functional
MIA PaCa-2 [4] = experiment: Antiproliferative activity against human MIA PaCa-2 cells assessed as growth inhibition incubated for 72 hrs by celltiter-glo assay; assay type: functional
PANC-1 = experiment: Antiproliferative activity against human PANC-1 cells assessed as growth inhibition incubated for 72 hrs by celltiter-glo assay; assay type: functional
MCF7 = experiment: Antiproliferative activity against human MCF7 cells assessed as growth inhibition incubated for 72 hrs by celltiter-glo assay; assay type: functional
A498 [5] = experiment: Antiproliferative activity against human A498 cells assessed as growth inhibition incubated for 72 hrs by celltiter-glo assay; assay type: functional
HT-29 [6] = experiment: Antiproliferative activity against human HT-29 cells assessed as growth inhibition incubated for 72 hrs by celltiter-glo assay; assay type: functional
U2OS = experiment: Induction of mitotic arrest in human U2OS cells assessed as effect on pHH3 level at 10 to 250 nmol/L incubated for 19 hrs by ELISA analysis; assay type: functional, cell-based; conditions: dose 10-250 nmol/L
COLO 205 [7] = experiment: Antitumor activity against human COLO 205 cells xenografted in Nude mouse assessed as effect on Ki67 level at 50 mg/kg, ip administered one dose every 2 day repeated for 12 days by immunohistochemistry analysis; assay type: functional, organism-based; conditions: time 12.0 day
A498 [8] = experiment: Antiproliferative activity against human A498 cells assessed as of viable cell signal at minimum maximum cell growth incubated for 72 hrs by celltiter-glo assay relative to control; assay type: functional
DU-145 = experiment: Antiproliferative activity against human DU-145 cells assessed as of viable cell signal at minimum maximum cell growth incubated for 72 hrs by celltiter-glo assay relative to control; assay type: functional
NCI-H1299 = experiment: Antiproliferative activity against human NCI-H1299 cells assessed as of viable cell signal at minimum maximum cell growth incubated for 72 hrs by celltiter-glo assay relative to control; assay type: functional
NCI-H157 = experiment: Antiproliferative activity against human NCI-H157 cells assessed as of viable cell signal at minimum maximum cell growth incubated for 72 hrs by celltiter-glo assay relative to control; assay type: functional
HCC1937 = experiment: Antiproliferative activity against human HCC1937 cells assessed as of viable cell signal at minimum maximum cell growth incubated for 72 hrs by celltiter-glo assay relative to control; assay type: functional
HL-60 = experiment: Antiproliferative activity against human HL-60 cells assessed as of viable cell signal at minimum maximum cell growth incubated for 72 hrs by celltiter-glo assay relative to control; assay type: functional
HT-1080 [9] = experiment: Antiproliferative activity against human HT-1080 cells assessed as of viable cell signal at minimum maximum cell growth incubated for 72 hrs by celltiter-glo assay relative to control; assay type: functional
HT-29 [10] = experiment: Antiproliferative activity against human HT-29 cells assessed as of viable cell signal at minimum maximum cell growth incubated for 72 hrs by celltiter-glo assay relative to control; assay type: functional
K562 = experiment: Antiproliferative activity against human K562 cells assessed as of viable cell signal at minimum maximum cell growth incubated for 72 hrs by celltiter-glo assay relative to control; assay type: functional
MDA-MB-231 [11] = experiment: Antiproliferative activity against human MDA-MB-231 cells assessed as of viable cell signal at minimum maximum cell growth incubated for 72 hrs by celltiter-glo assay relative to control; assay type: functional
NCI-H727 = experiment: Antiproliferative activity against human NCI-H727 cells assessed as of viable cell signal at minimum maximum cell growth incubated for 72 hrs by celltiter-glo assay relative to control; assay type: functional
OVCAR-4 [12] = experiment: Antiproliferative activity against human OVCAR-4 cells assessed as of viable cell signal at minimum maximum cell growth incubated for 72 hrs by celltiter-glo assay relative to control; assay type: functional
SAOS-2 = experiment: Antiproliferative activity against human SAOS-2 cells assessed as of viable cell signal at minimum maximum cell growth incubated for 72 hrs by celltiter-glo assay relative to control; assay type: functional
SK-MEL-28 = experiment: Antiproliferative activity against human SK-MEL-28 cells assessed as of viable cell signal at minimum maximum cell growth incubated for 72 hrs by celltiter-glo assay relative to control; assay type: functional
U-87 MG = experiment: Antiproliferative activity against human U-87 MG cells assessed as of viable cell signal at minimum maximum cell growth incubated for 72 hrs by celltiter-glo assay relative to control; assay type: functional, U-87MG ATCC
A549 [13] = experiment: Antiproliferative activity against human A549 cells assessed as viable cell signal at maximum growth inhibition incubated for 72 hrs by celltiter-glo assay relative to control; assay type: functional
ASPC1 = experiment: Antiproliferative activity against human ASPC1 cells assessed as viable cell signal at maximum growth inhibition incubated for 72 hrs by celltiter-glo assay relative to control; assay type: functional
BXPC-3 = experiment: Antiproliferative activity against human BXPC-3 cells assessed as viable cell signal at maximum growth inhibition incubated for 72 hrs by celltiter-glo assay relative to control; assay type: functional
COLO 205 [14] = experiment: Antiproliferative activity against human COLO 205 cells assessed as viable cell signal at maximum growth inhibition incubated for 72 hrs by celltiter-glo assay relative to control; assay type: functional
Jurkat = experiment: Antiproliferative activity against human Jurkat cells assessed as viable cell signal at maximum growth inhibition incubated for 72 hrs by celltiter-glo assay relative to control; assay type: functional
MDA-MB-231 [15] = experiment: Antiproliferative activity against human MDA-MB-231 cells assessed as viable cell signal at maximum growth inhibition incubated for 72 hrs by celltiter-glo assay relative to control; assay type: functional
MDA-MB-468 = experiment: Antiproliferative activity against human MDA-MB-468 cells assessed as viable cell signal at maximum growth inhibition incubated for 72 hrs by celltiter-glo assay relative to control; assay type: functional
MIA PaCa-2 [16] = experiment: Antiproliferative activity against human MIA PaCa-2 cells assessed as viable cell signal at maximum growth inhibition incubated for 72 hrs by celltiter-glo assay relative to control; assay type: functional
OVCAR-3 = experiment: Antiproliferative activity against human OVCAR-3 cells assessed as viable cell signal at maximum growth inhibition incubated for 72 hrs by celltiter-glo assay relative to control; assay type: functional
OVCAR-4 [17] = experiment: Antiproliferative activity against human OVCAR-4 cells assessed as viable cell signal at maximum growth inhibition incubated for 72 hrs by celltiter-glo assay relative to control; assay type: functional
Panc 02.03 = experiment: Antiproliferative activity against human Panc 02.03 cells assessed as viable cell signal at maximum growth inhibition incubated for 72 hrs by celltiter-glo assay relative to control; assay type: functional
T-24 = experiment: Antiproliferative activity against human T24 cells assessed as viable cell signal at maximum growth inhibition incubated for 72 hrs by celltiter-glo assay relative to control; assay type: functional

Sequence of Ribosomal protein S6 kinase alpha-1 (Rattus norvegicus) (Q63531 whole entry): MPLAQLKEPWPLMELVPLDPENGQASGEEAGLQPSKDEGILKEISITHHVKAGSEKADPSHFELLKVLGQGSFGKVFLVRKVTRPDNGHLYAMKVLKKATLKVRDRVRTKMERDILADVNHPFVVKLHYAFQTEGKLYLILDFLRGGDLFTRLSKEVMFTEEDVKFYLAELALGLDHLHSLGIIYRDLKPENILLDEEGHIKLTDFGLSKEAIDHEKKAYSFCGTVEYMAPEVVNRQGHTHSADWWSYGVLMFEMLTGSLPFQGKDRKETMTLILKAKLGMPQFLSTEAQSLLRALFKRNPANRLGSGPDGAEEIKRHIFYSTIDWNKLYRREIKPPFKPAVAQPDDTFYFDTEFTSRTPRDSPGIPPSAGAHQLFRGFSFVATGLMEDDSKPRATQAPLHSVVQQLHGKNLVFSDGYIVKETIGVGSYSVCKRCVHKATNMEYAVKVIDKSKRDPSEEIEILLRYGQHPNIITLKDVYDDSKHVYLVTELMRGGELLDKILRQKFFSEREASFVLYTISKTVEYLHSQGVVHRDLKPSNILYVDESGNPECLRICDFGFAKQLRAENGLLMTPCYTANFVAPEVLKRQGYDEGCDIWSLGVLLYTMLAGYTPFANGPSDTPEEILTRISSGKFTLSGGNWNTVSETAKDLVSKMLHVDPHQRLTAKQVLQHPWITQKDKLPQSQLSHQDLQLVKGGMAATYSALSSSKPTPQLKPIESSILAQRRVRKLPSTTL

For `C[C@@H](Oc1cc(-n2cnc3ccc(CN4CCN(C)CC4)cc32)sc1C(N)=O)c1ccccc1C(F)(F)F` [GSK-461364], the inhibition [1] was 87%, the Activity (A549 [2]) was “Active” and the GI50 (LoVo) was 12.2 nM. It also gave a GI50 (HT-1080 [3]) of 24.6 nM, a GI50 (SK-MEL-2) of 14 nM and a GI50 (A704) of 183 nM. For the same compound, the GI50 (LNCaP) was 15.3 nM, the GI50 (MIA PaCa-2 [4]) was 39.9 nM and the GI50 (PANC-1) was 44.9 nM. For the same compound, the GI50 (MCF7) was 6.4 nM, the GI50 (A498 [5]) was 40.4 nM and the GI50 (HT-29 [6]) was 8.1 nM. For the same compound, the Activity (U2OS) was “Active”, the Activity (COLO 205 [7]) was “Active” and the Emin (A498 [8]) was 243.2%. It also gave an Emin (DU-145) of 69.1%, an Emin (NCI-H1299) of 44.4% and an Emin (NCI-H157) of 95.3%. It also gave an Emin (HCC1937) of 100%, an Emin (HL-60) of 15.3% and an Emin (HT-1080 [9]) of 62.5%. For the same compound, the Emin (HT-29 [10]) was 327.7%, the Emin (K562) was 91.2% and the Emin (MDA-MB-231 [11]) was 37%. It also gave an Emin (NCI-H727) of 158.9%, an Emin (OVCAR-4 [12]) of 164.7% and an Emin (SAOS-2) of 83.5%. It also gave an Emin (SK-MEL-28) of 199.6%, an Emin (U-87 MG) of 0.1% and an Emax (A549 [13]) of 632%. For the same compound, the Emax (ASPC1) was 294%, the Emax (BXPC-3) was 278% and the Emax (COLO 205 [14]) was 616%. For the same compound, the Emax (Jurkat) was 753%, the Emax (MDA-MB-231 [15]) was 520% and the Emax (MDA-MB-468) was 458%. For the same compound, the Emax (MIA PaCa-2 [16]) was 580%, the Emax (OVCAR-3) was 496% and the Emax (OVCAR-4 [17]) was 342%. For the same compound, the Emax (Panc 02.03) was 420% and the Emax (T-24) was 692%.

From ChEMBL document CHEMBL5705887, “Distinct concentration-dependent effects of the polo-like kinase 1-specific inhibitor GSK461364A, including differential effect on apoptosis” (Cancer Res, 2009)
